From BindingDB's records for doi:10.1016/s0960-894x(98)00691-x (Novartis Pharmaceuticals, 1999)

Assay: Inhibition of Cyclin-dependent kinase 1, CDK1-related human bladder carcinoma (T24) cell proliferation

CCn1cnc2c(Nc3cccc(Cl)c3)nc(N[C@H]3CC[C@@H](O)CC3)nc21 [4-[6-(3-Chloro-phenylamino)-9-ethyl-9H-purin-2-ylamino]-cyclohexanol]
IC50: 830 nM
